Experimental data taken from patent publication US20210355450A1, “CERVICAL CANCER ORGANOIDS” (Max-Planck-Gesellschaft zur Förderung der Wissenschaften …, priority 2018, published 2021).
Entries after “also recorded” stand apart in the source; their conditions may differ.

Legend:
[1] = test system: human ectocervical organoids; assay: Human ectocervical organoid culture: formation, growth, differentiation; format: cell-based; details: for formation and expansion of squamous stratified organoids from single ectocervical stem cells: Wnt3a and RSPO1 together present in culture medium, human
Procedure: The medium consisted of ADF, 12 mM HEPES and 1% GlutaMax, supplemented with 1% B27, 1% N2, 0.5 μg/ml hydrocortisone (Sigma, #H0888-1G), 10 ng/ml human EGF (Invitrogen, #PHG0311), 100 ng/ml human noggin (Peprotech; #120-10C), 100 ng/ml human FGF-10 (Peprotech, #100-26-25), 1.25 mM N-acetyl-L-cysteine, 10 mM nicotinamide, 2 μM TGF-β R kinase Inhibitor IV, 10 μM ROCK inhibitor (Y-27632), 10 μM forskolin (Sigma, F6886) and 1% penicillin/streptomycin.
(§1) Cells isolated from tissue or the stem cells grown in 2D culture were mixed with 50 μl of ice cold Matrigel (BD, #356231) at a density of 20,000 cells, and the Matrigel droplet was placed in a pre-warmed 24-well plate and allowed to polymerize for 10 min at 37° C. The Matrigel droplet was then overlaid with 500 μl of pre-warmed human ecto- or endocervical medium. Cultures were kept at 37° C., 5% CO2 in a humidified incubator for 2-3 weeks and medium replaced every four days. For passaging the organoids, Matrigel was first dissolved by adding 1 ml of ice cold ADF and pipetting up and down 5 times. Organoids were collected in a 15 ml Falcon tube and a further 4 ml of ice cold ADF medium was added and organoids resuspended well to completely dissolve the Matrigel, followed by centrifugation at 300×g for 5 mins at 4° C. Medium was discarded and the ectocervical and mouse organoids were incubated with 1 ml of TrypLE Express for 30 min at 37° C. followed by mechanical fragmentation using a fire-polished glass Pasteur pipette by vigorous pipetting (8-10 times) to generate single cells. The single cells were then seeded at a 1:10 ratio back into Matrigel for expanding and culturing. Endocervical organoids were subjected to mechanical fragmentation as described above after centrifugation to generate fragments that were seeded back into Matrigel at 1:5 ratio. Matrigel was allowed to polymerize for 10 min at 37° C., overlaid with pre-warmed medium and cultured as described above.
(§2) Stem cells were counted and a defined number resuspended in 50 μl of Matrigel to generate organoids as described above. Between 2-3 weeks after plating images were taken of the whole well and the number and area of organoids formed were determined using ImageJ to calculate organoid forming efficiency.
Organoids were washed with cold PBS five times to remove Matrigel before fixing with 4% paraformaldehyde for 1 h at room temperature (RT) followed by washing with PBS twice. Organoids were then subjected to dehydration in an ascending ethanol series followed by isopropanol and acetone for 20 min each. The dehydrated organoids were paraffin embedded and 5 μm sections cut on a Microm HM 315 microtome. Mouse and human tissues were extensively washed with PBS and fixed using 4% PFA overnight at RT. Samples were subjected to dehydration in an ascending ethanol series followed by isopropanol and xylene (60 mins each) followed by paraffinization using a Leica TP1020 tissue processor. The tissue was embedded and 5 μm sections cut on a microtome. For immunostaining, paraffin sections were deparaffinized and rehydrated, followed by treatment with antigen retrieval solution (Dako, #S1699). Sections were blocked using blocking buffer (1% BSA and 2% FCS in PBS) for 1 h at RT. Primary antibodies were diluted in blocking buffer and incubated for 90 min at RT followed by five PSB washes before 1 h incubation with secondary antibodies diluted in blocking buffer along with Hoechst or Draq5. Sections were washed with PBS five times and mounted using Mowiol. […]

[2] = test system: mouse ectocervical organoids; assay: Mouse ectocervical organoid culture: formation and expansion; format: cell-based; details: for formation and expansion of squamous stratified organoids from single ectocervical stem cells: Wnt3a and RSPO1 together present in culture medium, mouse; for effect of presence or absence of Wnt pathway activators on murine organoid culture: murine ectocervical organoid medium
Procedure: Cervical cells were cultured in ADF medium (Invitrogen, #12634) supplemented with 12 mM HEPES (Invitrogen, #15630-056), 1% GlutaMax (Invitrogen, #35050-038), 1% B27 (Invitrogen, #17504-044), 1% N2 (Invitrogen, #17502048), 50 ng/ml mouse epidermal growth factor (EGF) (Invitrogen, #PMG8043), 100 ng/ml mouse noggin (Peprotech, #250-38-100), 100 ng/ml human fibroblast growth factor (FGF)-10 (Peprotech, #100-26-25), 1.25 mM N-acetyl-L-cysteine (Sigma, #A9165-5G), 10 mM nicotinamide, (Sigma, #N0636), 2 μM TGF-β R Kinase Inhibitor IV (Calbiochem, #616454), 10 μM ROCK inhibitor (Y-27632) (Sigma, #Y0503), 1% penicillin/streptomycin (Gibco, #15140-122) with or without 25% Wnt3A- and 25% R-spondin1-conditioned medium, as described in Willert et al (46) and Farin et al (47).
as §1, §2

Molecule: C[C@H](NC(=O)Cc1cc(F)cc(F)c1)C(=O)N[C@@H]1C(=O)N(C)c2ccccc2-c2ccccc21 [DBZ]
- organoid growth (area of organoids) ([1]; grown in presence of γ-secretase inhibitor (Notch inhibition), FIG. 3H, 11D): reduced organoid growth
- proliferation of organoids (Ki67) ([1]; presence of γ-secretase inhibitor, FIG. 3I): reduces proliferation
- differentiation and stratification of organoids ([1]; presence of γ-secretase inhibitor, immunolabelling CDH1, Ki67, p63, FIG. 3I): failed to differentiate and stratify; also recorded: prevents differentiation

Molecule: Wnt3a
- formation and expansion of squamous stratified organoids from single ectocervical stem cells [1]: detrimental
- formation and expansion of squamous stratified organoids from single ectocervical stem cells [2]: detrimental
- effect of presence or absence of Wnt pathway activators on murine organoid culture [2]: not to substantially effect

B1: RSPO1: Wnt agonist R-spondin 1, supplied as 25% conditioned medium (protein, UniProt Q2MKA7 21-263, looked up)
R-spondin-1: SRGIKGKRQRRISAEGSQACAKGCELCSEVNGCLKCSPKLFILLERNDIRQVGVCLPSCPPGYFDARNPDMNKCIKCKIEHCEACFSHNFCTKCKEGLYLHKGRCYPACPEGSSAANGTMECSSPAQCEMSEWSPWGPCSKKQQLCGFRRGSEERTRRVLHAPVGDHAACSDTKETRRCTVRRVPCPEGQKRRKGGQGRRENANRNLARKESKEAGAGSRRRKGQQQQQQQGTVGPLTSAGPA
modifications: conditioned medium
notes: Wnt agonist R-spondin 1, supplied as 25% conditioned medium
- formation and expansion of squamous stratified organoids from single ectocervical stem cells [1]: detrimental
- formation and expansion of squamous stratified organoids from single ectocervical stem cells [2]: detrimental
- effect of presence or absence of Wnt pathway activators on murine organoid culture [2]: not to substantially effect
